Data on five molecules can be found in US20040254238A1, “Bone growth stimulation with NO/statin and other NO modulating combinations” (OSTEOSCREEN, priority 2003, published 2004).

In one assay the test system is bone mass. As to conditions: Horiuchi et al. 2001, Kinoshita et al. 2000; cited from earlier work.
Another assay relates to three month old S-D rats. The assay can be described thus: Bone mineral density in rats treated orally by gavage for 16 weeks. It is filed as in vivo, rat. As to conditions: oral gavage, S-D rats (FIG. 4 lower panel). On the procedure:
Statin equivalence: 100 mg/kg/day=0.72 mg/day; 400 mg/kg/day=2.9 mg/day; and 800 mg/kg/day=5.8 mg/day.
In this experiment, experimental groups of three month old S-D rats were used. Food was removed from the cages 6 hours prior to dosing. The animals were then treated orally by gavage once a day with vehicle (0.5% methylcellulose), lovastatin, or OsteoPure™ (lovastatin-containing reduced rice extract). OsteoPure™ was administered at 100, 400, or 800 mg/kg/day five days a week for 16 weeks. The statin equivalence in OsteoPure™ is 100 mg/kg/day=0.72 mg/day; 400 mg/kg/day=2.9 mg/day; and 800 mg/kg/day=5.8 mg/day. Rats were weighed weekly. Bone mineral density (BMD) were analyzed every four weeks. In the upper panel, the bone mineral densities (BMDs) are shown. In the lower panel, the % change in BMDs of the experimental over the 16 weeks is shown. […] This trend is confirmed in the long term analysis of percent change in BMDs shown in the lower panel.

For another assay, the system named is osteoprogenitor cells. As to conditions: cells treated with dexamethasone in vitro; Cui et al. 1996; cited from earlier work.
The test system of the next assay is bone resorption. As to conditions: lipid clearing agents; Wang et al. 1995; cited from earlier work.
The test system of the next assay is neonatal murine calvaria. As to conditions: L-arginine alone, 20 μM.
A further assay concerns rats. As to conditions: injected locally into the subcutaneous tissues of rats; Wozney 1992; cited from earlier work.

Protocol for neonatal murine calvaria: Selected compounds and appropriate controls were assayed in vitro (ex vivo) for bone formation activity (described above in “In Vitro Neonatal Mouse Calvaria Assay”). Histomorphometrical assessments of ex vivo calvaria were carried out using an OsteoMetrics bone morphometry measurement program, according to the manufacturer's instructions. Measurements were determined using either a 10- or 20-fold objective with a standard point counting eyepiece graticule.

For `CC(=O)CCCCn1c(=O)c2c(ncn2C)n(C)c1=O` [pentoxifylline], the bone mass entry in the assay with bone mass is listed as “increase bone mass by promoting bone formation”.

In the case of `CC[C@H](C)C(=O)O[C@H]1C[C@@H](C)C=C2C=C[C@H](C)[C@H](CC[C@@H]3C[C@@H](O)CC(=O)O3)[C@H]21` [lovastatin], the “percent change in BMDs over 16 weeks, co-administered with L-arginine relative to the agent alone” value in the assay on three month old S-D rats is “greater increase in BMDs”. Further, the “triglyceride vesicles in osteoprogenitor cells” value in the assay with osteoprogenitor cells is reported as “diminished triglyceride vesicles”. In addition, the “bone resorption induced by steroid administration” value in the assay with bone resorption was “inhibit bone resorption induced by steroid administration”.

As to `N=C(N)NCCC[C@H](N)C(=O)O` [L-arginine], the bone formation result in the assay with neonatal murine calvaria is given as “induces bone formation”.

`COc1ccc(C2CNC(=O)C2)cc1OC1CCCC1` (stereo not shown) [rolipram]: the bone mass result with bone mass is given as “increase bone mass by promoting bone formation”.

B1: BMP-4: recombinant bone morphogenic protein (protein, UniProt P12644 293-408, looked up)
Bone morphogenetic protein 4: SPKHHSQRARKKNKNCRRHSLYVDFSDVGWNDWIVAPPGYQAFYCHGDCPFPLADHLNSTNHAIVQTLVNSVNSSIPKACCVPTELSAISMLYLDEYDKVVLKNYQEMVVEGCGCR
On to B1, for which the new bone formation result in the assay with rats is given as “can induce new bone formation”.
